Source: article PMC4172838 (Malaria Journal, 2014)
Each block holds one compound with its values, some of them ahead of it.

Experiments:
MRP2 = system: T1, MRP2; assay: Vesicular transport assay, MRP2-mediated E217βG uptake in HEK293 membrane vesicles; type: biochemical, human; settings: 100 μM compound; E217βG 150 nM; solvent control = 100% transport
T1 construct: made in house; host or cells: HEK293 cells transduced with baculovirus; isolated membrane vesicles
Procedure: (§1) Human P-gp, BCRP, BSEP and MRP1-4 had previously been cloned into the Gateway pDONR221 vector. […] Gateway cloning was used to transfer the genes into a VSV-G improved pFastBacDual vector for mammalian cell transduction. The production of baculovirus was executed according to the Invitrogen Bac-to-Bac manual.
(§2) HEK293 cells were grown to 40% confluency in Dulbecco’s modified Eagle’s medium-GlutaMAX-I containing 10% foetal calf serum at 5% CO2 in 500 cm^2 triple flasks. […]
(§3) Cells were harvested three days post transduction by a 5-min centrifugation step at 3,000 g. […] Protein concentration in these vesicles was determined using the Bio-Rad protein assay, vesicles were flash-frozen in N2 and stored at -80°C.
(§4) A rapid filtration technique that has been described earlier was applied to evaluate uptake of transporter specific substrates into the vesicles; NMQ for P-gp, E1S for BCRP, E217βG for MRP1-4 and TCA for BSEP [20]. […] Transport was allowed by transfer of the plates to 37°C during 1–5 min, a time-point within the linear phase of time-dependent transport, as previously determined. […] Radioactive signal on the filters was determined by liquid scintillation counting. […]
(§5) In the first screen, all anti-malarial compounds were added to the reaction mixture to evaluate transport inhibition at a concentration of 100 μM. […] Results were depicted and statistically analysed using Graphpad Prism, version 5.03. […]

MRP3 = system: T2, MRP3; assay: Vesicular transport assay, MRP3-mediated E217βG uptake in HEK293 membrane vesicles; type: biochemical, human; settings: 100 μM compound; E217βG 150 nM; solvent control = 100% transport
T2 construct: made in house; host or cells: HEK293 cells transduced with baculovirus; isolated membrane vesicles
From the text: Some sequences did hold silent mutations of described polymorphisms.

[1] = system: T3, bile salt export pump (BSEP/ABCB11); assay: Vesicular transport assay, BSEP-mediated taurocholic acid uptake in HEK293 membrane vesicles; type: biochemical, human; settings: 100 μM compound; taurocholic acid 1 μM; solvent control = 100% transport
T3 construct: made in house; host or cells: HEK293 cells transduced with baculovirus; isolated membrane vesicles
Procedure: Cells were harvested three days post transduction by a 5-min centrifugation step at 3,000 g. Cells were resuspended in ice-cold hypotonic buffer (0.5 mM sodium phosphate, 0.1 mM EDTA, pH 7.0) containing protease inhibitors (100 mM phenylmethylsulfonyl fluoride, 5 mg/ml aprotinin, 5 mg/ml leupeptin, 1 mg/ml pepstatin and 1 mg/ml E-64) and shaken at 4°C for 30 min. This lysate was centrifuged 100,000 xg for 30 min at 4°C, after which the pellet was homogenized in ice-cold TS buffer (10 mM Tris-HEPES and 250 mM sucrose, pH 7.4) supplemented with protease inhibitors described before using a tight-fitting Dounce homogenizer for 25 strokes. Two subsequent centrifugation steps at 4°C of firstly 20 min at 4,000 g followed by supernatant centrifugation for 60 min at 100,000 g ensured harvesting of the membrane fraction. The pellet was resuspended in ice-cold protease free TS buffer and passed 25 times through a 27-gauge needle to enhance membrane vesicle formation. Protein concentration in these vesicles was determined using the Bio-Rad protein assay, vesicles were flash-frozen in N2 and stored at -80°C.
A rapid filtration technique that has been described earlier was applied to evaluate uptake of transporter specific substrates into the vesicles; NMQ for P-gp, E1S for BCRP, E217βG for MRP1-4 and TCA for BSEP [20]. Briefly, 0.015-0.15 μCi of labelled substrate was combined with unlabelled substrates to a concentration of 0.1-1 μM in a 30 μL reaction mixture with 4 mM ATP, 10 mM MgCl2 and 7.5 μg total protein membrane vesicles in TS buffer. Transport was allowed by transfer of the plates to 37°C during 1–5 min, a time-point within the linear phase of time-dependent transport, as previously determined [15–19]. Hereafter, the reaction was rapidly stopped by placing the plates back on ice and the addition of 150 μL ice-cold TS buffer. Samples were subsequently transferred to a 96-well filter plate that had been pre-incubated with TS buffer, and filtered using a multiscreen HTS-vacuum manifold filtration device (Millipore). […] Radioactive signal on the filters was determined by liquid scintillation counting. […]
All concentrations were tested in duplicates or triplicates in two individual biological replicates containing vesicles of independent transductions. […] IC50 values were determined by nonlinear regression analysis of (log) inhibitor-response curves with variable slope. […]

MRP1 = system: T4, MRP1; assay: Vesicular transport assay, MRP1-mediated E217βG uptake in HEK293 membrane vesicles; type: biochemical, human; settings: 100 μM compound; E217βG 150 nM; solvent control = 100% transport
T4 construct: made in house; host or cells: HEK293 cells transduced with baculovirus; isolated membrane vesicles
Procedure: as §1, §2, §3, §4, §5

[2] = molecular target: T5, breast cancer resistance protein (BCRP/ABCG2) (Homo sapiens, UniProt Q9UNQ0); assay: Vesicular transport assay, BCRP-mediated estrone sulphate uptake in HEK293 membrane vesicles; settings: for BCRP-mediated estrone sulphate transport, percentage of solvent control: 100 μM compound, estrone sulphate 74 nM, solvent control = 100% transport
T5 sequence (Q9UNQ0 1-655): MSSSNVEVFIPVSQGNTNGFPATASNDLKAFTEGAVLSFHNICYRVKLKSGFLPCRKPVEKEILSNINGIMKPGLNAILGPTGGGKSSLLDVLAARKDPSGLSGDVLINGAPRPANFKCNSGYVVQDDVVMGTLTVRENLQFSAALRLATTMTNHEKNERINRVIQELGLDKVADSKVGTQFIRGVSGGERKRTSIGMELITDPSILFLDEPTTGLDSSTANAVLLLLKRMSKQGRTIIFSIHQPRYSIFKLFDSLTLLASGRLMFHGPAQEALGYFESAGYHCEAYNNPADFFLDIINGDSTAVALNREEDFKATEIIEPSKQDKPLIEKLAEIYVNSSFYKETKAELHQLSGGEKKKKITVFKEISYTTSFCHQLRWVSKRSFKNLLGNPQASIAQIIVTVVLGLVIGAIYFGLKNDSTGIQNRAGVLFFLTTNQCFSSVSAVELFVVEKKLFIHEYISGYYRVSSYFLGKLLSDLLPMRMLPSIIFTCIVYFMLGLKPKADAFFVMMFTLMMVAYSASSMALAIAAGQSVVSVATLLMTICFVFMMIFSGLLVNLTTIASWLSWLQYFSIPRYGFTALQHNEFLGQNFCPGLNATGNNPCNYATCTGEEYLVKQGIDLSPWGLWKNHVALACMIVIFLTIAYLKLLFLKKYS
Procedure: as §1
(§6) HEK293 cells were grown to 40% confluency in Dulbecco’s modified Eagle’s medium-GlutaMAX-I containing 10% foetal calf serum at 5% CO2 in 500 cm^2 triple flasks. Culture medium was removed and 25 mL of medium combined with 10 mL virus was added and incubated at RT for 20 min, followed by the addition of another 40 mL of complete medium including 5 mM sodium butyrate to enhance protein expression.
(§7) Cells were harvested three days post transduction by a 5-min centrifugation step at 3,000 g. Cells were resuspended in ice-cold hypotonic buffer (0.5 mM sodium phosphate, 0.1 mM EDTA, pH 7.0) containing protease inhibitors ([…] phenylmethylsulfonyl fluoride, 5 mg/ml aprotinin, 5 mg/ml leupeptin, 1 mg/ml pepstatin and 1 mg/ml E-64) and shaken at 4°C for 30 min. This lysate was centrifuged 100,000 xg for 30 min at 4°C, after which the pellet was homogenized in ice-cold TS buffer (10 mM Tris-HEPES and 250 mM sucrose, pH 7.4) supplemented with protease inhibitors described before using a tight-fitting Dounce homogenizer for 25 strokes. Two subsequent centrifugation steps at 4°C of firstly 20 min at 4,000 g followed by supernatant centrifugation for 60 min at 100,000 g ensured harvesting of the membrane fraction. The pellet was resuspended in ice-cold protease free TS buffer and passed 25 times through a 27-gauge needle to enhance membrane vesicle formation. Protein concentration in these vesicles was determined using the Bio-Rad protein assay, vesicles were flash-frozen in N2 and stored at -80°C.
(§8) A rapid filtration technique that has been described earlier was applied to evaluate uptake of transporter specific substrates into the vesicles; NMQ for P-gp, E1S for BCRP, E217βG for MRP1-4 and TCA for BSEP [20]. Briefly, 0.015-0.15 μCi of labelled substrate was combined with unlabelled substrates to a concentration of 0.1-1 μM in a 30 μL reaction mixture with 4 mM ATP, 10 mM MgCl2 and 7.5 μg total protein membrane vesicles in TS buffer. Transport was allowed by transfer of the plates to 37°C during 1–5 min, a time-point within the linear phase of time-dependent transport, as previously determined. Hereafter, the reaction was rapidly stopped by placing the plates back on ice and the addition of 150 μL ice-cold TS buffer. Samples were subsequently transferred to a 96-well filter plate that had been pre-incubated with TS buffer, and filtered using a multiscreen HTS-vacuum manifold filtration device (Millipore). Filters were washed and extracted, after which 2 mL scintillation fluid was added to each filter. Radioactive signal on the filters was determined by liquid scintillation counting. Negative controls included eYFP-transduced vesicles and AMP instead of ATP in the reaction mixture.
In the first screen, all anti-malarial compounds were added to the reaction mixture to evaluate transport inhibition at a concentration of 100 μM. […] When ATP-dependent uptake was reduced more than 66.7%, the compound was considered a potential inhibitor, and multiple concentrations were tested in the reaction mixture to determine the IC50 value. All concentrations were tested in duplicates or triplicates in two individual biological replicates containing vesicles of independent transductions. Results were depicted and statistically analysed using Graphpad Prism, version 5.03. IC50 values were determined by nonlinear regression analysis of (log) inhibitor-response curves with variable slope.

[3] = cited from earlier work
[4] = molecular target: P-glycoprotein (P-gp/ABCB1) (Homo sapiens, UniProt P08183); assay: Vesicular transport assay, P-gp-mediated NMQ uptake in HEK293 membrane vesicles; settings: for P-gp-mediated NMQ transport, percentage of solvent control: 100 μM compound, NMQ 7 nM radio-labelled + 90 nM unlabelled, solvent control = 100% transport
Chain of P-glycoprotein (P-gp/ABCB1) (P08183 whole entry): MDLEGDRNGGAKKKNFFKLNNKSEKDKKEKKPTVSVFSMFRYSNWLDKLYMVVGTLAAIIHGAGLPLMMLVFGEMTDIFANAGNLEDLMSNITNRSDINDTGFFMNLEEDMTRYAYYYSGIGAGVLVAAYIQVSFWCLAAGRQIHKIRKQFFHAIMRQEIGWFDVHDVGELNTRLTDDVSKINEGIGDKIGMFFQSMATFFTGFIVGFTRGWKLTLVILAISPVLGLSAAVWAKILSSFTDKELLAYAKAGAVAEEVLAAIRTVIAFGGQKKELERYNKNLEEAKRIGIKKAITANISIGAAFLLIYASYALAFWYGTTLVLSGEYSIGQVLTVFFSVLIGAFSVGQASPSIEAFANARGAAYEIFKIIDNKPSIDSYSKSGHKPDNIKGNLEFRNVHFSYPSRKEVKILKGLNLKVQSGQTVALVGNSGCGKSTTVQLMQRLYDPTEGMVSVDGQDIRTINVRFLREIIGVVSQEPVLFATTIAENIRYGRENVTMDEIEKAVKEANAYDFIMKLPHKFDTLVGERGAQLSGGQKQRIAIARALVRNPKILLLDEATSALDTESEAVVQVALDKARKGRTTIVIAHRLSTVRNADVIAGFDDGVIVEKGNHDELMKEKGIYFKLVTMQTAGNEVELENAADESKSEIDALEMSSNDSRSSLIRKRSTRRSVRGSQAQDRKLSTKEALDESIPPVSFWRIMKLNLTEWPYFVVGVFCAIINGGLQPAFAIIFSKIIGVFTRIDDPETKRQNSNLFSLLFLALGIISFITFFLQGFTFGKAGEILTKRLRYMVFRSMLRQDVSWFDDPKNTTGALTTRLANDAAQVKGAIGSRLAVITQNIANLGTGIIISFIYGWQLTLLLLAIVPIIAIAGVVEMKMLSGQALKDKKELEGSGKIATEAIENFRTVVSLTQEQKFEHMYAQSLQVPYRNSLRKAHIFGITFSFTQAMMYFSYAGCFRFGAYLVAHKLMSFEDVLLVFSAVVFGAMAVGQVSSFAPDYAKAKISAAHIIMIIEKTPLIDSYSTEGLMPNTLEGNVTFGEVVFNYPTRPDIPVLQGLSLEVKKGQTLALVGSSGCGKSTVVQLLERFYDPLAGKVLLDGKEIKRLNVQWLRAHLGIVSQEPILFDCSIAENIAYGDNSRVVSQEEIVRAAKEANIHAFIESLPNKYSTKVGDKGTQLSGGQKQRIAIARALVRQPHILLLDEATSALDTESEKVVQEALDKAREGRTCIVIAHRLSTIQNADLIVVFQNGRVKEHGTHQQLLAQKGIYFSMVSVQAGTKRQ
Procedure: as §1, §6, §7, §8
In the first screen, all anti-malarial compounds were added to the reaction mixture to evaluate transport inhibition at a concentration of 100 μM. […] Results were depicted and statistically analysed using Graphpad Prism, version 5.03. IC50 values were determined by nonlinear regression analysis of (log) inhibitor-response curves with variable slope.

BCRP = settings: cited from earlier work; for IC50: described as BCRP inhibitors, not substrates, read-out: IC50 of BCRP inhibition
[5] = design: method as in PMID 21600016; settings: 12-hour measurement interval; co-administration with ATO/PG (250/100 mg) prophylaxis, one HIV patient; cited from earlier work
[6] = daily prophylactic dose of 250 mg

Compound: C[C@@H]1CC[C@H]2[C@@H](C)C(=O)O[C@@H]3O[C@@]4(C)CC[C@@H]1[C@]32OO4 [ART, artemisinin]
- MRP2-mediated estradiol 17-β-D glucuronide transport, percentage of solvent control (MRP2): 151%
- MRP3-mediated estradiol 17-β-D glucuronide transport, percentage of solvent control (MRP3): 122%
- BSEP-mediated taurocholic acid transport, percentage of solvent control [1]: 117%

Compound: O=C1C(O)=C([C@H]2CC[C@H](c3ccc(Cl)cc3)CC2)C(=O)c2ccccc21 [ATO, atovaquone]
- MRP2-mediated estradiol 17-β-D glucuronide transport, percentage of solvent control (MRP2): 162%
- MRP1-mediated estradiol 17-β-D glucuronide transport, percentage of solvent control (MRP1): 141%
- BSEP-mediated taurocholic acid transport, percentage of solvent control [1]: 54%
- IC50 [2]: 0.23 µM
- BCRP-mediated estrone sulphate transport, percentage of solvent control [2]: 22%
- Maximal blood plasma concentration [3, 6]: around 14 μM
- Maximal blood plasma concentration, range [3, 6]: 8 to 26 µM

- P-gp-mediated NMQ transport, percentage of solvent control [4]: 50%
- BCRP-mediated estrone sulphate transport, percentage of solvent control [2]: 69%
Compound: CCN(CC)CCCC(C)Nc1ccnc2cc(Cl)ccc12 (stereo not shown) [CQ, chloroquine]

- P-gp-mediated NMQ transport, percentage of solvent control [4]: 112%
- BCRP-mediated estrone sulphate transport, percentage of solvent control [2]: 70%
Compound: C[C@H]1[C@@H](O)O[C@@H]2O[C@@]3(C)CC[C@H]4[C@H](C)CC[C@@H]1[C@@]24OO3 [DHA, dihydroartemisinin]
- MRP3-mediated estradiol 17-β-D glucuronide transport, percentage of solvent control (MRP3): 121%
- BSEP-mediated taurocholic acid transport, percentage of solvent control [1]: 114%

- BCRP-mediated estrone sulphate transport, percentage of solvent control [2]: 44%
Compound: CCCCN(CCCC)CC(O)c1cc(Cl)cc2c1-c1ccc(Cl)cc1/C2=C/c1ccc(Cl)cc1 (stereo not shown) [L, lumefantrine]

Compound: OC(c1cc(C(F)(F)F)nc2c(C(F)(F)F)cccc12)C1CCCCN1 (stereo not shown) [MQ, mefloquine]
- IC50 [4]: 72 µM
- P-gp-mediated NMQ transport, percentage of solvent control [4]: 30%
- MRP3-mediated estradiol 17-β-D glucuronide transport, percentage of solvent control (MRP3): 70%
- MRP1-mediated estradiol 17-β-D glucuronide transport, percentage of solvent control (MRP1): 50%
- BSEP-mediated taurocholic acid transport, percentage of solvent control [1]: 72%
- IC50 [2]: 18 µM
- BCRP-mediated estrone sulphate transport, percentage of solvent control [2]: 8.5%

Compound: [H]/N=C(\N/C(=N/[H])Nc1ccc(Cl)cc1)NC(C)C [PG, proguanil]
- P-gp-mediated NMQ transport, percentage of solvent control [4]: 76%
- IC50 [2]: 118 µM
- BCRP-mediated estrone sulphate transport, percentage of solvent control [2]: 36%

Compound: C=C[C@H]1C[N@@]2CC[C@H]1C[C@H]2[C@H](O)c1ccnc2ccc(OC)cc12 [Q, quinine]
- Maximal plasma concentration ([3]; seven-day regimen of 10 mg/kg oral dose three times daily of quinine sulphate): 30 µM

Compound: COC(=O)N[C@H](C(=O)N[C@@H](Cc1ccccc1)[C@@H](O)CN(Cc1ccc(-c2ccccn2)cc1)NC(=O)[C@@H](NC(=O)OC)C(C)(C)C)C(C)(C)C [atazinavir]
- BCRP-mediated transport inhibition (in words) (BCRP): inhibitors of BCRP-mediated transport

Compound: O=C1Nc2ccc(Cl)cc2[C@@](C#CC2CC2)(C(F)(F)F)O1 [efavirenz]
- BCRP-mediated transport inhibition (in words) (BCRP): inhibitors of BCRP-mediated transport

Compound: Cc1cc(C#N)cc(C)c1Oc1nc(Nc2ccc(C#N)cc2)nc(N)c1Br [etravirine]
- Increase of AUC [5]: 55%
- IC50 (BCRP): 1 µM

Compound: Cc1cccc(C)c1OCC(=O)N[C@@H](Cc1ccccc1)[C@@H](O)C[C@H](Cc1ccccc1)NC(=O)[C@H](C(C)C)N1CCCNC1=O [lopinavir]
- BCRP-mediated transport inhibition (in words) (BCRP): inhibitors of BCRP-mediated transport

Compound: Cc1nnc(C(=O)NC(C)(C)c2nc(C(=O)NCc3ccc(F)cc3)c(O)c(=O)n2C)o1 [raltegravir]
- BCRP inhibition (in words) (BCRP): do not inhibit BCRP

Compound: CC(C)(C)NC(=O)[C@@H]1C[C@@H]2CCCC[C@@H]2CN1C[C@@H](O)[C@H](Cc1ccccc1)NC(=O)[C@H](CC(N)=O)NC(=O)c1ccc2ccccc2n1 [saquinavir]
- Increase of AUC [5]: 274%
- IC50 (BCRP): 19.5 µM

Compound: maraviroc
- BCRP inhibition (in words) (BCRP): do not inhibit BCRP
